PMC8591507, “Progesterone receptor membrane component 1 (PGRMC1) binds and stabilizes cytochromes P450 through a heme-independent mechanism” (The Journal of Biological Chemistry, 2021)

Columns and labels:
[1] = target: T1, Y113F PGRMC1 (progesterone receptor membrane component 1) (Homo sapiens, UniProt O00264, Y113F); experiment: spectrophotometric hemin titration (A394), Hill fit; format: binding
T1 construct: recombinant truncated human PGRMC1 (aa 43–195), His tag removed by thrombin

[2] = target: T2, PGRMC1 (progesterone receptor membrane component 1) (Homo sapiens, UniProt O00264); experiment: as above; format: binding
T2 construct: recombinant truncated human PGRMC1 (aa 43–195), His tag removed by thrombin
T2 sequence (O00264 43-195): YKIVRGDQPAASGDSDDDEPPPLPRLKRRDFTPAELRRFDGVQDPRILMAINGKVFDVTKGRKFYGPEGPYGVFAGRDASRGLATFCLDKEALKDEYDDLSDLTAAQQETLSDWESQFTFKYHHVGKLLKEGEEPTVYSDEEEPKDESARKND

T1 sequence (O00264 43-195 Y113F): as the sequence (O00264 43-195) above, with Y71F counted along it

## C=CC1=C(C)C2=Cc3c(C=C)c(C)c4[n]3[Fe]([Cl])[n]3c(c(C)c(CCC(=O)O)c3=CC3=NC(=C4)C(C)=C3CCC(=O)O)=CC1=N2 [hemin]
[1]
  Kd: 4.7 ± 0.42 µM
[2]
  Kd: 4.9 ± 0.33 µM
